We go through 21 compounds from patent US20230242494A1, “MALONITRILE DERIVATIVES” (Hoffmann-La Roche Inc., priority 2020, published 2023).

Structures are written as SMILES.

T1 sequence (Q8N884 161-522): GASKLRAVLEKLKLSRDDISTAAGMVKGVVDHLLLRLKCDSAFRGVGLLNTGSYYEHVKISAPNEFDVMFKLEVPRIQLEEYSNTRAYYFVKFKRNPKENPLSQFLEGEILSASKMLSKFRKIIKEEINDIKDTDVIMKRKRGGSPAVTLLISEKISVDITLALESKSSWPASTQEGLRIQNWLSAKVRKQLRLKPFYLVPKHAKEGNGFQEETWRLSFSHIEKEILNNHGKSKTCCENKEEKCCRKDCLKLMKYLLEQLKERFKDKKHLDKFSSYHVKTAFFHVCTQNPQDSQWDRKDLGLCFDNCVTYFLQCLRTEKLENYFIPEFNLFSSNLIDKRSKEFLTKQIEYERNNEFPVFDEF

This assay concerns the target T1, human cGAS (residues 161-522) (Homo sapiens, UniProt Q8N884).
T1 construct: human cGAS (residues 161-522); made in house
In words: cGAS Activity Assay—Malachite Green. The assay is classed as biochemical. To be noted: recombinant purified human cGAS 25 nM; 80 μM ATP, 80 μM GTP, 100 nM ISD; 4 hour at RT; phosphate detection by Malachite Green. The method, boiled down: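 Human cGAS (161-522, 25 nM) in 20 mM TRIS pH 7.5, 5 mM MgCl2, 0.01% BSA with 80 μM ATP, 80 μM GTP and 100 nM ISD DNA, 4 h at RT. Pyrophosphate converted by PPase, phosphate read with Malachite Green at 620 nm; IC50 from 4-parameter fit of 16-point series.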
For `Cc1oncc1/C(O)=C(\C#N)C(=O)Nc1ncc(OCC2CC2)c(-c2ccc(Cl)cc2)n1` [Example 125, (Z)-N-(4-(4-chlorophenyl)-5-(cyclopropylmethoxy)pyrimidin-2-yl)-2-cyano-3-hydroxy-3-(5-methylisoxazol-4-yl)acrylamide], the IC50 (commonly the midpoint of a concentration-inhibition curve) is 2.91 µM. The result for `COCCOc1cnc(NC(=O)/C(C#N)=C(\O)c2cnoc2C)nc1-c1ccccc1` [Example 126, (Z)-2-cyano-3-hydroxy-N-(5-(2-methoxyethoxy)-4-phenylpyrimidin-2-yl)-3-(5-methylisoxazol-4-yl)acrylamide] reads 0.42 µM. Under `Cc1oncc1/C(O)=C(\C#N)C(=O)Nc1ncc(OCC(F)(F)F)c(-c2ccc(Cl)cc2)n1` [Example 127, (Z)-N-(4-(4-chlorophenyl)-5-(2,2,2-trifluoroethoxy)pyrimidin-2-yl)-2-cyano-3-hydroxy-3-(5-methylisoxazol-4-yl)acrylamide] stands 2.34 µM.

As for `COCCOc1cnc(NC(=O)/C(C#N)=C(\O)c2cnoc2C)nc1CCc1ccccc1` [Example 128, (Z)-2-cyano-3-hydroxy-N-(5-(2-methoxyethoxy)-4-phenethylpyrimidin-2-yl)-3-(5-methylisoxazol-4-yl)acrylamide], the half-inhibitory concentration (IC50) came out at 0.37 µM.

`COc1cnc(NC(=O)/C(C#N)=C(\O)c2cnoc2C)nc1CCc1ccccc1` [Example 129, (Z)-2-cyano-3-hydroxy-N-(5-methoxy-4-phenethylpyrimidin-2-yl)-3-(5-methylisoxazol-4-yl)acrylamide]: the IC50 was 0.52 µM.

Take `COc1ccc(CCc2cnc(NC(=O)/C(C#N)=C(\O)c3cnoc3C)nc2C(F)(F)F)cn1` [Example 130, (Z)-2-cyano-3-hydroxy-N-(5-(2-(6-methoxypyridin-3-yl)ethyl)-4-(trifluoromethyl)pyrimidin-2-yl)-3-(5-methylisoxazol-4-yl)acrylamide]: the IC50 amounted to 1.22 µM.

For `Cc1oncc1/C(O)=C(\C#N)C(=O)Nc1ncc(CCc2ccccc2)c(C(F)(F)F)n1` [Example 131, (Z)-2-cyano-3-hydroxy-3-(5-methylisoxazol-4-yl)-N-(5-phenethyl-4-(trifluoromethyl)pyrimidin-2-yl)acrylamide], the IC50 came out at 2.18 µM. The result for `Cc1oncc1/C(O)=C(\C#N)C(=O)Nc1ncc(C(=O)N(C)Cc2ccccc2)c(-c2ccccc2)n1` [Example 132, (Z)—N-Benzyl-2-(2-cyano-3-hydroxy-3-(5-methylisoxazol-4-yl)acrylamido)-N-methyl-4-phenylpyrimidine-5-carboxamide] reads 0.19 µM; that for `Cc1oncc1/C(O)=C(\C#N)C(=O)Nc1ncc(C(=O)N(C)Cc2ccccc2)c(CCc2ccccc2)n1` [Example 133, (Z)-N-benzyl-2-(2-cyano-3-hydroxy-3-(5-methylisoxazol-4-yl)acrylamido)-N-methyl-4-phenethylpyrimidine-5-carboxamide], 1.33 µM; that for `Cc1oncc1/C(O)=C(\C#N)C(=O)Nc1ncc(C(=O)N(C)c2ccccc2)c(CCc2ccccc2)n1` [Example 134, (Z)-2-(2-cyano-3-hydroxy-3-(5-methylisoxazol-4-yl)acrylamido)-N-methyl-4-phenethyl-N-phenylpyrimidine-5-carboxamide], 1.71 µM. Under `Cc1oncc1/C(O)=C(\C#N)C(=O)Nc1ncc(C(=O)N(C)c2ccccc2)c(-c2ccccc2)n1` [Example 135, (Z)-2-(2-cyano-3-hydroxy-3-(5-methylisoxazol-4-yl)acrylamido)-N-methyl-N,4-diphenylpyrimidine-5-carboxamide] stands 0.57 µM; under `Cc1oncc1/C(O)=C(\C#N)C(=O)Nc1ncc(S(C)(=O)=O)c(-c2cccc(Cl)c2)n1` [Example 136, (Z)—N-(4-(3-chlorophenyl)-5-(methylsulfonyl)pyrimidin-2-yl)-2-cyano-3-hydroxy-3-(5-methylisoxazol-4-yl)acrylamide], 0.07 µM; under `Cc1oncc1/C(O)=C(\C#N)C(=O)Nc1ncc(S(C)(=O)=O)c(-c2cccc(F)c2)n1` [Example 137, (Z)-2-cyano-N-(4-(3-fluorophenyl)-5-(methylsulfonyl)pyrimidin-2-yl)-3-hydroxy-3-(5-methylisoxazol-4-yl)acrylamide], 0.06 µM. Turning to `Cc1oncc1/C(O)=C(\C#N)C(=O)Nc1ncc(S(C)(=O)=O)c(CCc2ccccc2)n1` [Example 138, (Z)-2-cyano-3-hydroxy-3-(5-methylisoxazol-4-yl)-N-(5-(methylsulfonyl)-4-phenethylpyrimidin-2-yl)acrylamide], the IC50 came out at 0.2 µM. Consider `Cc1oncc1/C(O)=C(\C#N)C(=O)Nc1ncc(S(=O)(=O)c2ccccc2)c(-c2cccc(F)c2)n1` [Example 139, (Z)-2-cyano-N-(4-(3-fluorophenyl)-5-(phenylsulfonyl)pyrimidin-2-yl)-3-hydroxy-3-(5-methylisoxazol-4-yl)acrylamide], for which the IC50 worked out at 0.06 µM. Under `Cc1oncc1/C(O)=C(\C#N)C(=O)Nc1ncc(S(C)(=O)=O)c(-c2ccccc2Cl)n1` [Example 140, (Z)-N-(4-(2-chlorophenyl)-5-(methylsulfonyl)pyrimidin-2-yl)-2-cyano-3-hydroxy-3-(5-methylisoxazol-4-yl)acrylamide] stands 0.24 µM.

Regarding `CCc1oncc1/C(O)=C(\C#N)C(=O)Nc1ccc(C(F)(F)F)cc1` [Example 141, (Z)-2-cyano-3-(5-ethylisoxazol-4-yl)-3-hydroxy-N-(4-(trifluoromethyl)phenyl)acrylamide], the IC50 is 6.45 µM. Under `N#C/C(C(=O)Nc1ccc(C(F)(F)F)cc1)=C(/O)c1cnoc1` [Example 142, (Z)-2-cyano-3-hydroxy-3-(isoxazol-4-yl)-N-(4-(trifluoromethyl)phenyl)acrylamide] stands 5.19 µM. Regarding `Cc1oncc1/C(O)=C(\C#N)C(=O)Nc1cccc(CO)c1` [Example 143, (Z)-2-Cyano-3-hydroxy-N-[3-(hydroxymethyl)phenyl]-3-(5-methylisoxazol-4-yl)prop-2-enamide], the IC50 came to 0.96 µM.

In the case of `Cc1oncc1/C(O)=C(\C#N)C(=O)Nc1cccc(C(=O)O)c1` [Example 144, 3-[[(Z)-2-Cyano-3-hydroxy-3-(5-methylisoxazol-4-yl)prop-2-enoyl]amino]benzoic acid], the IC50 is 0.33 µM. Under `Cc1oncc1/C(O)=C(\C#N)C(=O)Nc1ccc(CC(=O)O)cc1` [Example 145, 2-[4-[[(Z)-2-Cyano-3-hydroxy-3-(5-methylisoxazol-4-yl)prop-2-enoyl]amino]phenyl]acetic acid] stands 0.47 µM.
